Laboratory results from patent US9687438B2, “Method for enhancing collagen secretion and preventing cutaneous aging using chenopodium formosanum extract” (TCI Co., Ltd., priority 2014, dated 2017).

Key:
porcine collagen [1] = test: Early glycation product (fructosamine) formation; assay type: biochemical; conditions: versus untreated glycated collagen control
Method: (§1) In order to evaluate the ability to prevent glycation of collagen of the Chenopodium formosanum extract, firstly, porcine collagen (60 mg/mL) and fructose (1.5 M) were respectively prepared in 0.2 M potassium phosphate buffer (pH 7.4, containing 0.06% sodium azide). For each reaction of glycation, 100 μL of porcine collagen, 100 μL of fructose solution, and 100 μL of deionized water were deposited in a 1.5 mL microfuge tube. After incubation, the reacted solutions were stored frozen at −20° C. For determination of collagen-fructose glycation, a glycation inhibitor of aminoguanidine (AG) (Sigma) was used. 100 μL of 3 mM AG solution (prepared in deionized water) was introduced in substitution of the deionized water in each of the reactions described above containing collagen and fructose. Meanwhile, different concentrations of the whole grain (un-dehulled) Chenopodium formosanum extract were also prepared and introduced to the reactions describe above. For determination of the intensity, 100 μL of each reacted solution was withdrawn to a well of a 96-well plate and subjected to intensity determination by a spectrofluorometer (FLx 800, BioTek, Winooski, Vt.) set at 360 nm of excitation and 460 nm of emission.
Amadori product such as fructosamine is formed at the early stage of glycation. […]

porcine collagen [2] = test: Intermediate glycation product (α-dicarbonyl compounds) formation; assay type: biochemical; conditions: versus untreated glycated collagen control
Method: as §1
Along the glycation process, amadori product is transformed into intermediate-product such as α-dicarbonyl compounds. […]

N=C(N)NN [aminoguanidine]
reduction of relative fructosamine formation (porcine collagen [1]): about 8%
reduction of relative α-dicarbonyl compounds formation (porcine collagen [2]): practically incapable of suppressing the formation of α-dicarbonyl compounds
